According to ChEMBL document CHEMBL3808320, “1,4-Diphenalkylpiperidines: A new scaffold for the design of potent inhibitors of the vesicular monoamine transporter-2” (Bioorg Med Chem Lett, 2016):

Molecular target: T1, Synaptic vesicular amine transporter (Rattus norvegicus, UniProt Q01827)
Assay: Inhibition of [3H]DA uptake at VMAT2 in rat striata vesicles homogenate after 8 mins by liquid scintillation counting

T1 sequence (Q01827 whole entry): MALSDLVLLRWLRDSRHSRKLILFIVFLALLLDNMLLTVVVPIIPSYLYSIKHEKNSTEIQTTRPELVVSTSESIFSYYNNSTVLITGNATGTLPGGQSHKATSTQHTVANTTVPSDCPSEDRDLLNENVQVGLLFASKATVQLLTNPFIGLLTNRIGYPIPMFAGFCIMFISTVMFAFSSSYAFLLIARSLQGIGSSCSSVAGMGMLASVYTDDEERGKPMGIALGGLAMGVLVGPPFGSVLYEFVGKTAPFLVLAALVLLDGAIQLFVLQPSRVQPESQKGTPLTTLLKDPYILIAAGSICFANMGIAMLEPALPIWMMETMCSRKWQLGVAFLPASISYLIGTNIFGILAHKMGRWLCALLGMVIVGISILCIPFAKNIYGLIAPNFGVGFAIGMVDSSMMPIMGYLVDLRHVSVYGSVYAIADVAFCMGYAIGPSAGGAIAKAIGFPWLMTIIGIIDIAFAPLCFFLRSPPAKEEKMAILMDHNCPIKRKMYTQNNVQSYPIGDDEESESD

Ki	Compound
120 nM	c1ccc(CCC2CCN(CCc3ccccc3)CC2)cc1

Molecular target: Synaptic vesicular amine transporter (Rattus norvegicus) (UniProt Q01827)
Assay: Potency index, ratio of lobelane Ki to compound Ki for VMAT2 in rat striata vesicles homogenate

Synaptic vesicular amine transporter (Rattus norvegicus), sequence (Q01827 whole entry): as above

Compound	Ratio Ki
COc1ccccc1CCC1CCN(CCc2ccccc2OC)CC1	4
COc1ccccc1CCC1CCN(CCc2ccc(F)cc2)CC1	4
COc1cccc(CCN2CCC(CCc3ccccc3OC)CC2)c1	4

Molecular target: T1, Synaptic vesicular amine transporter
Assay: Displacement of [3H]DTBZ from VMAT2 in rat whole brain vesicles homogenate after 30 mins by liquid scintillation counting
Assay type: tissue-based

Compound	Ki
COc1ccc(CCC2CCN(CCc3ccc(OC)cc3)CC2)cc1	2500 nM
COc1ccccc1CCN1CCC(CCc2ccccc2)CC1	260 nM
COc1cccc(CCN2CCC(CCc3ccccc3)CC2)c1	270 nM
COc1cccc(CCN2CCC(Cc3ccccc3)CC2)c1	1500 nM
COc1ccccc1CCN1CCC(Cc2ccccc2)CC1	2800 nM
COc1ccc(CCN2CCC(Cc3ccccc3)CC2)cc1	1900 nM

Molecular target: Synaptic vesicular amine transporter (Rattus norvegicus) (UniProt Q01827)
Assay: Potency index, ratio of lobelane Ki to compound Ki for VMAT2 in rat whole brain vesicles homogenate

Compound	Ratio Ki
COc1ccccc1CCC1CCN(CCc2ccccc2OC)CC1	5
COc1cccc(CCN2CCC(CCc3ccccc3OC)CC2)c1	5
